Measurements as given in ChEMBL document CHEMBL1201862, “PubChem BioAssay data set” (2004).
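Compound exposure: 48 hours, 5 concentrations, 96-well plates. GI50 is the concentration that inhibits growth by half.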 The source made the active and inactive calls. Cut-off read from the data, not from the text of the source: active = GI50 up to about 1.1 µM and inactive = higher.

Experiments:
Test in all cases: NCI-60 cell line screen, 48 h
[1] = test system: BT-549
[2] = test system: SN12C
[3] = test system: ACHN
[4] = test system: EKVX
[5] = test system: NCI-H460
[6] = test system: SF-268
[7] = test system: RXF 393
[8] = test system: HT-29
[9] = test system: SNB-75
[10] = test system: HCT-15
[11] = test system: DU-145
[12] = test system: A498
[13] = test system: CAKI-1
[14] = test system: SF-295
[15] = test system: COLO 205
[16] = test system: SNB-19
[17] = test system: UACC-62
[18] = test system: U-251
[19] = test system: KM12
[20] = test system: M14
[21] = test system: NCI/ADR-RES
[22] = test system: HOP-92
[23] = test system: HCC 2998
[24] = test system: HL-60
[25] = test system: RPMI-8226
[26] = test system: UACC-257
[27] = test system: MDA-N
[28] = test system: IGROV-1
[29] = test system: OVCAR-8
[30] = test system: MOLT-4
[31] = test system: PC-3
[32] = test system: HOP-62
[33] = test system: HCT-116
[34] = test system: OVCAR-4
[35] = test system: TK-10
[36] = test system: MDA-MB-231
[37] = test system: UO-31
[38] = test system: MCF7
[39] = test system: SK-MEL-5
[40] = test system: MDA-MB-435
[41] = test system: SK-MEL-2
[42] = test system: K562
[43] = test system: OVCAR-3
[44] = test system: CCRF-CEM
[45] = test system: SF-539
[46] = test system: A549
[47] = test system: SK-MEL-28
[48] = test system: SK-OV-3
[49] = test system: LOX IMVI
[50] = test system: SR
[51] = test system: 786-0
[52] = test system: Hs-578T
[53] = test system: T47D
[54] = test system: OVCAR-5
[55] = test system: SW-620

## BrCC[P+](c1ccccc1)(c1ccccc1)c1ccccc1
[1]
  GI50: 14.9 µM (inactive)
[2]
  GI50: 1.98 µM (inactive)
[3]
  GI50: 3.18 µM (inactive)
[4]
  GI50: 0.792 µM (active)
[5]
  GI50: 19.5 µM (inactive)
[6]
  GI50: 2.13 µM (inactive)
[7]
  GI50: 2.43 µM (inactive)
[8]
  GI50: 13.3 µM (inactive)
[9]
  GI50: 3.23 µM (inactive)
[10]
  GI50: 32.7 µM
[11]
  GI50: 6.49 µM (inactive)
[12]
  GI50: 11.4 µM (inactive)
[13]
  GI50: 4.37 µM (inactive)
[14]
  GI50: 30.8 µM (inactive)
[15]
  GI50: 2.87 µM (inactive)
[16]
  GI50: 21.4 µM (inactive)
[17]
  GI50: 6.58 µM (inactive)
[18]
  GI50: 3.87 µM (inactive)
[19]
  GI50: 4.8 µM (inactive)
[20]
  GI50: 4.15 µM (inactive)
[21]
  GI50: 6.31 µM (inactive)
[22]
  GI50: 3.57 µM (inactive)
[23]
  GI50: 9.42 µM (inactive)
[24]
  GI50: 2.25 µM (inactive)
[25]
  GI50: 0.948 µM (active)
[26]
  GI50: 3.7 µM (inactive)
[27]
  GI50: 2.61 µM (inactive)
[28]
  GI50: 13.3 µM (inactive)
[29]
  GI50: 3.1 µM (inactive)
[30]
  GI50: 4.43 µM (inactive)
[31]
  GI50: 5.21 µM (inactive)
[32]
  GI50: 6.68 µM (inactive)
[33]
  GI50: 2.28 µM (inactive)
[34]
  GI50: 6.5 µM (inactive)
[35]
  GI50: 16.9 µM (inactive)
[36]
  GI50: 18.3 µM (inactive)
[37]
  GI50: 4.75 µM (inactive)
[38]
  GI50: 13.5 µM (inactive)
[39]
  GI50: 8.11 µM (inactive)
[40]
  GI50: 2.84 µM (inactive)
[41]
  GI50: 5.26 µM (inactive)
[42]
  GI50: 1.77 µM (inactive)
[43]
  GI50: 2.59 µM (inactive)
[44]
  GI50: 2.25 µM (inactive)
[45]
  GI50: 15 µM (inactive)
[46]
  GI50: 1.91 µM (inactive)
[47]
  GI50: 4.89 µM (inactive)
[48]
  GI50: 24.5 µM (inactive)
[49]
  GI50: 4.23 µM (inactive)
[50]
  GI50: 4.93 µM (inactive)
[51]
  GI50: 2.75 µM (inactive)
[52]
  GI50: 20.4 µM (inactive)
[53]
  GI50: 1.27 µM (inactive)
[54]
  GI50: 10.8 µM (inactive)
[55]
  GI50: 2.51 µM (inactive)
